In US20040023386A1, “Modulation of nitric oxide synthase by PKC” (Joslin Diabetes Center, Inc., a Massachusetts corporation, priority 2000, published 2004):

Assays:
NOS activity = assay: Assay of NOS activity in BAECs; assay type: cell-based, bovine; settings: insulin 100 nmol/L
Procedure: The amount of NOS activity produced by BAECs was measured by using an NOS Detect assay kit (Transduction Laboratories) according to the manufacturer's instructions. Briefly, BAECs were harvested in PBS containing 1 mmol/L EDTA and centrifuged at 12 000 g. The pellets were lysed in homogenization buffer containing 25 mmol/L Tris, pH 7.4, 1 mmol/L EDTA, and 1 mmol/L EGTA and centrifuged at 12 000 g. Aliquots from the supernatant were used for the measurement of NOS activity through the conversion of [^3H]L-arginine to [^3H]L-citrulline. Data were normalized by the amount of protein and reaction time.

eNOS mRNA [1] = assay: eNOS mRNA level in BAECs (Northern blot); assay type: cell-based, bovine
Procedure: (§1) Bovine aortic endothelial cells (BAECs) from passages 4 to 10 were isolated. Confluent cells were placed in DMEM containing 1% platelet-deprived horse serum (PDHS) for 24 hours before being studied and pretreated with the following inhibitors: phosphatidylinositol-3 (PI-3) kinase-selective inhibitors wortmannin (Sigma Chemical Co) and LY294002 (BIOMOL Research Laboratories), protein kinase C (PKC) activator phorbol-12-myristate-13-acetate (PMA) (Sigma Chemical Co), general PKC inhibitor GF109203X (GFX) (Calbiochem-Novabiochem Corp), and PKCβ isoform-selective inhibitor LY333531 (Lilly Inc). Cells were then stimulated with insulin (Sigma Chemical Co), recombinant insulin-like growth factor-1 (IGF-1) (Upstate Biotechnology), and LPC (Avanti Polar Lipid) or alpha-IR3 antibodies.
(§2) Total RNA from cultured BAECs, PKCβ1-overexpressed BAECs, and vascular stroma from the epididymal fat pads of Zucker rats were isolated according to the guanidinium thiocyanate-phenol-chloroform method with TRI Reagent (Molecular Research Center) and solution D containing 4 mol/L guanidinium thiocyanate, 25 mmol/L sodium citrate, pH 7.0, 0.5% sarcosyl, and 0.1 mol/L 2-mercaptoethanol. Total RNA (20 μg) was fractionated and hybridized to 650-bp cDNA fragments of rat eNOS (kindly provided by Dr Mark A. Perella and Arthur M. E. Lee, Harvard School of Public Health, Boston, Mass.), which were labeled with the use of a DNA labeling system (Multiprime; Amersham Corp). The quantification of eNOS mRNA levels was performed with a PhosphorImager (Molecular Dynamics) and normalized to 36B4 mRNA.

eNOS protein = assay: Immunoblot analysis of eNOS protein in BAECs; assay type: cell-based, bovine
Procedure: as §1
Cells were washed 3 times with ice-cold PBS, pH 7.4, lysed in 50 mmol/L Tris, pH 7.5, 2 mmol/L EDTA, 0.5 mmol/L EGTA, 2 mmol/L PMSF, 25 μg/mL leupeptin, 0.1 mg/mL aprotinin, 1 mmol/L dithiothreitol, 50 mmol/L NaF, and 1% Triton X-100 (Sigma Chemical Co); scraped from the dish; rotated for 1 hour at 4° C.; and centrifuged for 15 minutes at 14 000 g. Protein concentrations of the supernatant were measured according to the method of Bradford and separated with the use of 6% SDS-PAGE. The membrane was incubated for 1 hour with polyclonal anti-human eNOS antibody (Transduction Laboratories) diluted in PBS containing 0.1% Tween-20 and 1% BSA, washed 3 times for 10 minutes with PBS containing 0.1% Tween-20, and incubated with 0.1 μCi/ML ^125I-protein A (Amersham Life Science, Inc). Protein levels of eNOS were quantified with a PhosphorImager.

eNOS mRNA [2] = assay: eNOS mRNA level in adenovirus-infected BAECs (PKCβ1 or β-Gal); assay type: cell-based, bovine; settings: for increase of eNOS mRNA levels: LPC 100 μmol/L
Procedure: The construction of a replication-deficient recombinant adenovirus for PKCβ1 expression was performed as described in Becker et al. Methods Cell Biol. 1994;43:161-189. Adenovirus-mediated gene transfer to confluent BAECs was performed through a 1-hour adenoviral infection of 10^9 pfu/mL at 37° C. in DMEM containing 10% PDHS. The infected BAECs were then incubated in DMEM containing 1% PDHS for 24 hours, incubated with or without insulin (100 nmol/L) for an additional 6 hours, and harvested. AdV-CMV-PKCβ1- or β-galactosidase (β-Gal)-infected BAECs were assessed for PKC activity and protein expression as previously described.
as §2

eNOS mRNA [3] = assay: eNOS mRNA level in vascular stroma from epididymal fat pads of Zucker rats; assay type: cell-based; settings: insulin 100 nmol/L, 6 hours
Procedure: Vascular stromas were obtained from the epididymal fat pads of 12-week-old Zucker lean and fatty rats (Harlan Sprague Dawley, Inc). Epididymal fat pads were isolated, minced, and incubated with 0.2% collagenase I for 30 minutes at 37° C. Then, they were fractionated with the use of a Dounce homogenizer and centrifuged at 3000 g for 20 minutes to isolate vessels from adipocytes. Vascular stroma were washed with DMEM containing 0.2% BSA and incubated with DMEM containing 0.2% BSA with or without insulin for 6 hours at 37° C. T he purity of the isolated vascular stroma was quantified through immunohistochemical staining with anti-factor VIII antibody and through immunoblotting of the stroma with antibodies to smooth muscle cell alpha-actin. Only preparations that were stained positively in more than 90% of the vessels were used.
Total RNA from cultured BAECs, PKCβ1-overexpressed BAECs, and vascular stroma from the epididymal fat pads of Zucker rats were isolated according to the guanidinium thiocyanate-phenol-chloroform method with TRI Reagent (Molecular Research Center) and solution D containing 4 mol/L guanidinium thiocyanate, 25 mmol/L sodium citrate, pH 7.0, 0.5% sarcosyl, and 0.1 mol/L 2-mercaptoethanol. […] The quantification of eNOS mRNA levels was performed with a PhosphorImager (Molecular Dynamics) and normalized to 36B4 mRNA.

[4] = system: IRS-2-associated PI-3 kinase; assay: Assay of IRS-2-associated PI-3 kinase activity in BAECs; assay type: cell-based, bovine
Procedure: After preincubation with or without 100 nmol/L PMA for 30 minutes, BAECs were stimulated with insulin (100 nmol/L) for 5 minutes. Cells were processed as described previously for this assay. Aliquots of proteins from the supernatant were immunoprecipitated with 10 μL/ml anti-alpha-insulin receptor substrates (IRS)-2 antibodies (kindly provided by Dr Morris F. White, Joslin Diabetes Center, Boston, Mass) for 2 hours and bound to protein A-Sepharose beads at 4° C. as described previously. The lipids were quantified with a PhosphorImager.

eNOS mRNA [5] = assay: eNOS mRNA level in human umbilical endothelial cells; assay type: cell-based; settings: IGF-1 25 nmol/L

Compound: COC[C@H]1OC(=O)c2coc3c2[C@@]1(C)C1=C(C3=O)[C@@H]2CCC(=O)[C@@]2(C)C[C@H]1OC(C)=O [wortmannin, reference compound]
- insulin-induced NOS activity after preincubation with inhibitor (NOS activity; wortmannin 100 nmol/L preincubation for 15 minutes): 123±13 pmol/mg protein min

Compound: CN(C)C[C@@H]1CCn2cc(c3ccccc32)C2=C(C(=O)NC2=O)c2cn(c3ccccc23)CCO1 [LY333531, reference compound]
- increase of eNOS mRNA expression (eNOS mRNA [1]; LY333531 20 nmol/L): 60±14%

Compound: insulin: insulin (Sigma Chemical Co), used to stimulate endothelial cells
- increase of eNOS protein level (eNOS protein; insulin 100 nmol/L, Example 2): 74±9%
- increase of eNOS protein levels (eNOS protein; insulin, 6 hours): 43±16%
- maximum increase of eNOS protein levels (eNOS protein; insulin, 24 hours, maintained for 36 hours): 2 fold
- NOS activity (NOS activity; after 24 hours): 176±7 pmol/mg protein min
- concentration at which maximal effect on eNOS mRNA level was attained (eNOS mRNA [1]): < 100 nmol/L
- response of eNOS mRNA expression (eNOS mRNA [1]; insulin 0.1 nmol/L): significant increase
- increase of eNOS mRNA level (eNOS mRNA [1]; insulin 10 nmol/L): 50±12%
- maximum effect on eNOS mRNA level (dose response) (eNOS mRNA [1]; insulin 100 nmol/L): 2 fold
- increase of eNOS mRNA expression (eNOS mRNA [1]; insulin 100 nmol/L, 1 hour): 33±9%
- increase of eNOS mRNA expression (eNOS mRNA [1]; insulin 100 nmol/L, 6 hours): 71±21%
- maximum increase of eNOS mRNA expression (eNOS mRNA [1]; insulin 100 nmol/L, 12 hours, maintained for 24 hours): 2 fold
- increase of eNOS mRNA level compared with control (eNOS mRNA [1]; insulin 100 nmol/L, Example 2): 58±20%
- enhancement of eNOS mRNA expression (eNOS mRNA [2]; insulin 100 nmol/L, BAECs with or without adenovirus containing only β-Gal): ≤ 2 fold
- change of eNOS mRNA levels (eNOS mRNA [2]; insulin, cells infected with adenovirus containing the PKCβ1 isoform): did not increase
- increase of eNOS mRNA levels (eNOS mRNA [3]; vascular stroma from Zucker lean rats): 50±16%
- effect on eNOS mRNA levels (eNOS mRNA [3]; vascular stroma from insulin-resistant (Zucker fatty) rats): ineffective
- increase of IRS-2-associated PI-3 kinase activity ([4]; insulin 100 nmol/L, 5 minutes): 5.4±0.4 fold

Compound: lysophosphatidylcholine [LPC]
- increase of eNOS mRNA levels (eNOS mRNA [2]; adenovirus-containing β-Gal cells): 4.5 fold
- increase of eNOS mRNA levels (eNOS mRNA [2]; control cells): 5 fold
- increase of eNOS mRNA (eNOS mRNA [2]; LPC, BAECs infected with the adenoviral-PKCβ1 isoform): 4 fold

Compound: CN(C)CCCn1cc(C2=C(c3c[nH]c4ccccc34)C(=O)NC2=O)c2ccccc21 [GFX, reference compound]
- increase of eNOS mRNA expression (eNOS mRNA [1]; GFX 5 μmol/L without insulin, 6 hours): 38±10%
- increase of eNOS mRNA expression compared with control cells (eNOS mRNA [1]; both insulin and GFX): 76±20%

Compound: CCCCCCCCCCCCCC(=O)O[C@@H]1[C@@H](C)[C@@]2(O)[C@@H](C=C(CO)C[C@]3(O)C(=O)C(C)=C[C@@H]23)[C@@H]2C(C)(C)[C@]12OC(C)=O [PMA, phorbol-12-myristate-13-acetate, reference compound]
- increase of eNOS mRNA expression (eNOS mRNA [1]; PMA 100 nmol/L, 12 hours): 66±11%
- increase of eNOS mRNA expression (eNOS mRNA [1]; PMA 100 nmol/L, 24 hours): 105±14%
- change of eNOS mRNA level (eNOS mRNA [1]; PMA 100 nmol/L, initial 6 hours): did not change
- remaining effect of insulin on eNOS mRNA levels after PMA preincubation (eNOS mRNA [1]; preincubated with PMA for 30 minutes, then insulin): 14±13%
- effect on insulin-induced IRS-2-associated PI-3 kinase activity ([4]; PMA 100 nmol/L preincubation 30 minutes): mostly inhibited
- basal PI-3 kinase activity ([4]; PMA treatment): not changed

Compound: O=c1cc(N2CCOCC2)oc2c(-c3ccccc3)cccc12 [LY294002, reference compound]
- decrease of basal eNOS protein level (eNOS protein; LY294002 50 nmol/L): 72±5%
- decrease of basal eNOS mRNA expression (eNOS mRNA [1]; LY294002 50 nmol/L, without insulin treatment): 30±4%

Compound: IGF-1: recombinant insulin-like growth factor-1 (Upstate Biotechnology)
- increase of eNOS mRNA level (eNOS mRNA [5]): 47±10%
